Data published in patent publication US4927831A, “Spiro-isoquinoline-pyrrolidine tetrones and analogs thereof useful as aldose reductase inhibitors” (American Home Products, priority 1989, dated 1990).
Where “and” joins values, the source holds several entries; their conditions need not be identical. Equal values may be shown once. Read-outs that look alike come from different tables or passages of the source.

Key:
[1] = system: dulcitol accumulation in the sciatic nerve; experiment: % lowering of dulcitol accumulation in sciatic nerve (N) of galactosemic rats; assay type: in vivo, Sprague-Dawley; design: key: NS: statistically nonsignificant change; conditions: 4 days
Source text: (§1) The aldose reductase inhibiting property of the compounds of this invention and the utilization of the compounds in preventing, diminishing and alleviating diabetic complications are demonstrable in experiments using galactosemic rats, see Dvornik et al., Science, 182, 1146 (1973). Such experiments are exemplified hereinbelow after the listing of the following general comments pertaining to these experiments:
(§2) (a) Four or more groups of six male rats, 50-70 g, Sprague-Dawley strain, were used. The first group, the control group, was fed a mixture of laboratory chow (rodent Laboratory Chow, Purina) and glucose at 20% (w/w %) concentration. An untreated galactosemic group was fed a similar diet in which galactose was substituted for glucose. The third group was fed a diet prepared by mixing a given amount of the test compound with the galactose containing diet. The concentration of galactose in the diet of the treated groups was the same as that for the untreated galactosemic group.
(§3) (b) After four days, the animals were killed by euthanization. Both the lens and sciatic nerve were removed, weighed and stored frozen for polyol determination.
(§4) (c) The polyol determination was performed by a modification of the procedure of M. Kraml and L. Cosyns, Clin. Biochem., 2,373 (1969). Only two minor reagent changes were made: (a) The rinsing mixture was an aqueous 5% (w/v) trichloroacetic acid solution and (b) the stock solution was prepared by dissolving 25 mg of dulcitol in 100 ml of an aqueous trichloroacetic acid solution. [N.B.: For each experiment the average value found in the tissue from rats fed the glucose diet was subtracted from the individual values found in the corresponding tissue in galactose-fed rats to obtain the amount of polyol accumulated.] The aldose reductase inhibiting effects of the compounds of formula (I) were also tested by employing an in vitro testing procedure similar to that described by S. Hayman and J.H. Kinoshita, J. Biol. Chem., 240,877 (1965). In the present case the procedure of Hayman and Kinoshita was modified in that the final chromatography step was omitted in the preparation of the enzyme from bovine lens.
(§5) The figures under L and N represent the percentage decrease of dulcitol accumulation in the tissues of the lens and sciatic nerve, respectively, for treated rats as compared to untreated rats.

[2] = system: dulcitol accumulation in the lens; experiment: % lowering of dulcitol accumulation in lens (L) of galactosemic rats; assay type: in vivo, Sprague-Dawley; design: key: NS: statistically nonsignificant change; conditions: 4 days
Source text: as §1, §2, §3, §4, §5

aldose reductase = molecular target: T1, aldose reductase (Bos taurus, UniProt P16116); experiment: in vitro aldose reductase inhibition (modified Hayman and Kinoshita; enzyme from bovine lens); assay type: biochemical; conditions: read-out: % Inhibition IN VITRO
T1 construct: preparation of the enzyme from bovine lens; from tissue; host or cells: bovine lens
Protocol: Only two minor reagent changes were made: (a) The rinsing mixture was an aqueous 5% (w/v) trichloroacetic acid solution and (b) the stock solution was prepared by dissolving 25 mg of dulcitol in 100 ml of an aqueous trichloroacetic acid solution. [N.B.: For each experiment the average value found in the tissue from rats fed the glucose diet was subtracted from the individual values found in the corresponding tissue in galactose-fed rats to obtain the amount of polyol accumulated.] […] In the present case the procedure of Hayman and Kinoshita was modified in that the final chromatography step was omitted in the preparation of the enzyme from bovine lens. […] The figures under L and N represent the percentage decrease of dulcitol accumulation in the tissues of the lens and sciatic nerve, respectively, for treated rats as compared to untreated rats.

SMILES	% Lowering Dulcitol Accumulation IN VIVO, N (sciatic nerve) ([1]; 1.0 mg/kg in diet) [%]	% Lowering Dulcitol Accumulation IN VIVO, L (lens) ([2]; 1.0 mg/kg in diet)	inhibition at 10 µM (aldose reductase; 10^-5 M) [%]	inhibition at 1 µM (aldose reductase; 10^-6 M) [%]	inhibition at 0.1 µM (aldose reductase; 10^-7 M) [%]	inhibition at 0.04 µM (aldose reductase; 4 × 10^-8 M) [%]	inhibition at 1 µM (aldose reductase) [%]	% Lowering Dulcitol Accumulation IN VIVO, N (sciatic nerve) ([1]; 0.5 mg/kg in diet)	% Lowering Dulcitol Accumulation IN VIVO, L (lens) ([2]; 0.5 mg/kg in diet)	inhibition at 10 µM (aldose reductase) [%]	also measured
CN1C(=O)c2ccccc2C2(CC(=O)NC2=O)C1=O (stereo not shown) [H H CH3, 2-Methylspiro[isoquinoline-4(1H),3'-pyrrolidine]-1,2',3,5'(2H)-tetrone]	37.0	15.0%	95	91	63						% Lowering Dulcitol Accumulation IN VIVO, N (sciatic nerve) ([1]; 3.0 mg/kg in diet): 66.0%; % Lowering Dulcitol Accumulation IN VIVO, N (sciatic nerve) ([1]; 10.0 mg/kg in diet): 79.0%; % Lowering Dulcitol Accumulation IN VIVO, N (sciatic nerve) ([1]; 43.0 mg/kg in diet): 89.0%; % Lowering Dulcitol Accumulation IN VIVO, L (lens) ([2]; 3.0 mg/kg in diet): 43.0%; % Lowering Dulcitol Accumulation IN VIVO, L (lens) ([2]; 10.0 mg/kg in diet): 62.0%; % Lowering Dulcitol Accumulation IN VIVO, L (lens) ([2]; 43.0 mg/kg in diet): 86.0%; inhibition at 0.04 µM (aldose reductase): 38%
CCCCN1C(=O)c2ccccc2C2(CC(=O)NC2=O)C1=O (stereo not shown) [H H (CH2)3 CH3, 2-Butylspiro[isoquinoline-4(1H),3'-pyrrolidine]-1,2',3,5'(2H)-tetrone]			99		17	19	86				% Lowering Dulcitol Accumulation IN VIVO, N (sciatic nerve) ([1]; 10.0 mg/kg in diet): NS; % Lowering Dulcitol Accumulation IN VIVO, L (lens) ([2]; 10.0 mg/kg in diet): NS
O=C1C[C@@]2(C(=O)N1)C(=O)N(Cc1ccc(Br)cc1F)C(=O)c1ccccc12 [(R)-(+)-2-[(4-Bromo-2-fluorophenyl)methyl]spiro[isoquinoline-4(1H),3'-pyrrolidine]-1,2',3,5'(2H)-tetrone]					91	87	93	83%	NS	96	% Lowering Dulcitol Accumulation IN VIVO, N (sciatic nerve) ([1]; 5.1 mg/kg in diet): 100%; % Lowering Dulcitol Accumulation IN VIVO, L (lens) ([2]; 5.1 mg/kg in diet): NS
O=C1CC2(C(=O)N1)C(=O)N(Cc1ccc(Cl)c(Cl)c1)C(=O)c1ccccc12 (stereo not shown) [2-[(3,4-Dichlorophenyl)methyl]spiro[isoquinoline-4(1H),3'-pyrrolidine]-1,2',3,5'(2H)-tetrone]	64.0	10.0%	100	97	87	42					% Lowering Dulcitol Accumulation IN VIVO, N (sciatic nerve) ([1]; 3.0 mg/kg in diet): 76.0%; % Lowering Dulcitol Accumulation IN VIVO, N (sciatic nerve) ([1]; 10.0 mg/kg in diet): 92.0%; % Lowering Dulcitol Accumulation IN VIVO, N (sciatic nerve) ([1]; 48.0 mg/kg in diet): 85.0%; % Lowering Dulcitol Accumulation IN VIVO, L (lens) ([2]; 3.0 mg/kg in diet): 18.0%; % Lowering Dulcitol Accumulation IN VIVO, L (lens) ([2]; 10.0 mg/kg in diet): 35.0%; % Lowering Dulcitol Accumulation IN VIVO, L (lens) ([2]; 48.0 mg/kg in diet): 41.0%
COc1ccc2c(c1)C(=O)N(Cc1ccc(Br)cc1F)C(=O)C21CC(=O)NC1=O (stereo not shown) [[2-[(4-Bromo-2-fluorophenyl)methyl]-7-methoxy]spiro[isoquinoline-4(1H),3'-pyrrolidine]-1,2',3,5'(2H)-tetrone]			97		90	72	96				% Lowering Dulcitol Accumulation IN VIVO, N (sciatic nerve) ([1]; 25.7 mg/kg in diet): 88.1%; % Lowering Dulcitol Accumulation IN VIVO, L (lens) ([2]; 25.7 mg/kg in diet): 45.3%
CCCN1C(=O)c2ccccc2C2(CC(=O)NC2=O)C1=O (stereo not shown) [H H (CH2)2 CH3, 2-Propylspiro[isoquinoline-4(1H),3'-pyrrolidine]-1,2',3,5'(2H)-tetrone]				62	19	8				94	% Lowering Dulcitol Accumulation IN VIVO, N (sciatic nerve) ([1]; 11 mg/kg in diet): NS; % Lowering Dulcitol Accumulation IN VIVO, L (lens) ([2]; 11 mg/kg in diet): NS
O=C1CC2(C(=O)N1)C(=O)N(Cc1ccc(Br)cc1F)C(=O)c1c(F)cccc12 (stereo not shown) [[2-[(4-Bromo-2-fluorophenyl)methyl]-8-fluoro]spiro[isoquinoline-4(1H),3'-pyrrolidine]-1,2',3,5'(2H)-tetrone]	57.6	16.3%			92	43	94	50.6%	NS	96	
O=C1CC2(C(=O)N1)C(=O)N(Cc1ccc(Br)cc1F)C(=O)c1cc(Cl)ccc12 (stereo not shown) [[2-[(4-Bromo-2-fluorophenyl)methyl]-7-chloro]spiro[isoquinoline-4(1H),3'-pyrrolidine]-1,2',3,5'(2H)-tetrone]				92	42	25				96	% Lowering Dulcitol Accumulation IN VIVO, N (sciatic nerve) ([1]; 0.6 mg/kg in diet): 63%; % Lowering Dulcitol Accumulation IN VIVO, L (lens) ([2]; 0.6 mg/kg in diet): NS
CN1C(=O)c2ccc(Cl)cc2C2(CC(=O)NC2=O)C1=O (stereo not shown) [6-Cl H CH3, 6-Chloro-2-methylspiro[isoquinoline-4(1H)3'-pyrrolidine]-1,2',3,5'(2H)-tetrone]	75	33%			73	43	94			93	% Lowering Dulcitol Accumulation IN VIVO, N (sciatic nerve) ([1]; 3.0 mg/kg in diet): 75%; % Lowering Dulcitol Accumulation IN VIVO, L (lens) ([2]; 3.0 mg/kg in diet): 59%
O=C1CC2(C(=O)N1)C(=O)N(Cc1ccc(Br)cc1F)C(=O)c1cc(F)ccc12 (stereo not shown) [[2-[(4-Bromo-2-fluorophenyl)methyl]-7-fluoro]spiro[isoquinoline-4(1H),3'-pyrrolidine]-1,2'3,5'(2H)-tetrone]	50.2	NS	95		92	42	93	NS	NS		
O=C1CC2(C(=O)N1)C(=O)N(Cc1ccc(Br)cc1F)C(=O)c1ccccc12 (stereo not shown) [2-[(4-Bromo-2-fluorophenyl)methyl]spiro[isoquinoline-4(1H),3'-pyrrolidine]-1,2',3,5'(2H)-tetrone]	95.0	16.0%				51	94	82.0%	12.0%	96	% Lowering Dulcitol Accumulation IN VIVO, N (sciatic nerve) ([1]; 0.1 mg/kg in diet): 26.0%; % Lowering Dulcitol Accumulation IN VIVO, N (sciatic nerve) ([1]; 0.3 mg/kg in diet): 60.0%; % Lowering Dulcitol Accumulation IN VIVO, L (lens) ([2]; 0.1 mg/kg in diet): NS; % Lowering Dulcitol Accumulation IN VIVO, L (lens) ([2]; 0.3 mg/kg in diet): NS; inhibition at 0.1 µM (aldose reductase): 94%
O=C1CC2(C(=O)N1)C(=O)N(Cc1ccc(Br)cc1F)C(=O)c1ccc(F)cc12 (stereo not shown) [[2-[(4-Bromo-2-fluorophenyl)methyl]-6-fluoro]spiro[isoquinoline-4(1H),3'-pyrrolidine]-1,2',3,5'(2H)-tetrone]							96	82.9% and 92.1%	NS	97	% Lowering Dulcitol Accumulation IN VIVO, N (sciatic nerve) ([1]; 0.3 mg/kg in diet): 39.7%; % Lowering Dulcitol Accumulation IN VIVO, N (sciatic nerve) ([1]; 0.9 mg/kg in diet): 93.5%; % Lowering Dulcitol Accumulation IN VIVO, L (lens) ([2]; 0.3 mg/kg in diet): NS; % Lowering Dulcitol Accumulation IN VIVO, L (lens) ([2]; 0.9 mg/kg in diet): NS; inhibition at 0.04 µM (aldose reductase): 38%
O=C1CC2(C(=O)N1)C(=O)N(Cc1ccc(Br)cc1F)C(=O)c1cccc(F)c12 (stereo not shown) [[2-[(4-Bromo-2-fluorophenyl)methyl]-5-fluoro]spiro[isoquinoline-4(1H),3'-pyrrolidine]-1,2',3,5'(2H)-tetrone]	77.0	23.9%	98	98	92	44		52.5%	14.2%		
